Measurements from PMC9919615, “Generation of Aurachin Derivatives by Whole-Cell Biotransformation and Evaluation of Their Antiprotozoal Properties” (Molecules, 2023).
Where two headings read alike, the source gives them in different places.

Legend:
[1] = tested on: L. donovani MHOM-ET-67/L82; experiment: Antileishmanial assay (axenic amastigotes, resazurin viability); format: cell-based, Leishmania donovani; conditions: 3-day exposure, pH 5.4
Experimental: Serial dilution assays with 11 dilution steps in 96-well plates were used in order to determine the IC50 values of the generated aurachin D analogs against P. falciparum NF54 (erythrocytic stages), T. brucei rhodesiense STIB 900 (bloodstream forms), T. cruzi Tulahuen C4 (intracellular amastigotes) and L. donovani MHOM-ET-67/L82 (axenic amastigotes). Potential cytotoxic effects were evaluated with L6 myoblast cells (Table 2). Evaluation of antileishmanial activity was carried out with axenically grown amastigotes of Leishmania donovani MHOM-ET-67/L82, as previously described. For this, the amastigotes were cultured at 37 °C and pH 5.4 in SM medium supplemented with 10% heat-inactivated fetal bovine serum under an atmosphere of 5% CO2 in air. Following a 3-day exposure to test compounds, the viability of amastigote parasites was quantified using the dye resazurin by monitoring the reductive environment of living cells. Fluorescence development was expressed as percentage of the control, and IC50 values were calculated. Miltefosine was used as positive control.

[2] = tested on: T. brucei rhodesiense STIB 900; experiment: Antitrypanosomal assay T. brucei rhodesiense (resazurin viability); format: cell-based, Trypanosoma brucei rhodesiense; conditions: read-out: IC50 T. brucei rhodesiense STIB 900
Experimental: (§1) Serial dilution assays with 11 dilution steps in 96-well plates were used in order to determine the IC50 values of the generated aurachin D analogs against P. falciparum NF54 (erythrocytic stages), T. brucei rhodesiense STIB 900 (bloodstream forms), T. cruzi Tulahuen C4 (intracellular amastigotes) and L. donovani MHOM-ET-67/L82 (axenic amastigotes). Potential cytotoxic effects were evaluated with L6 myoblast cells (Table 2).
Activity against Trypanosoma brucei rhodesiense (strain STIB 900) was evaluated according to a previously established protocol. Parasites were grown axenically in culture medium supplemented with horse serum. Following a 3-day exposure to test compounds, the viability of tryptomastigote parasites was quantified using the dye resazurin by monitoring the reductive environment of living cells. Fluorescence development was expressed as percentage of the control, and IC50 values were calculated. Melarsoprol was included as positive control.

Rat Myoblast L6 Cells = experiment: Cytotoxicity assay with L6 cells (resazurin viability); format: cell-based
Experimental: as §1
Cytotoxicity was tested with L6 cells (ATCC CRL-1458), a […] cell line derived from rat skeletal myoblasts, as previously described. For this, L6 cells were grown in culture medium supplemented with heat-inactivated fetal bovine serum under an atmosphere of 5% CO2 in air. Following a 3-day exposure to test compounds, the viability of L6 cells was quantified using the dye resazurin by monitoring the reductive environment of living cells. Fluorescence development was expressed as percentage of the control, and IC50 values were calculated. Podophyllotoxin was used as reference.

P. falciparum NF54 = experiment: Antiplasmodial assay (3H-hypoxanthine incorporation); format: cell-based, Plasmodium falciparum; conditions: erythrocytic stages, 48 h drug exposure + 24 h with 3H-hypoxanthine
Experimental: as §1
Antiplasmodial activity was determined against the NF54 strain of Plasmodium falciparum using a modified ^3H-hypoxanthine incorporation assay. Briefly, infected erythrocytes were exposed to serial drug dilutions in microtiter plates for 48 h at 37 °C in a gas mixture with reduced oxygen and elevated carbon dioxide concentrations. ^3H hypoxanthine was added to each well, and after further incubation for 24 h, the wells were harvested on glass fiber filters and counted in a liquid scintillation counter. From the sigmoidal inhibition curve, the IC50 value was calculated. Chloroquine was used as positive control in each test series.

T. cruzi Tulahuen C4 = experiment: Antitrypanosomal assay T. cruzi (beta-galactosidase reporter strain on rat skeletal myoblasts); format: cell-based, Trypanosoma cruzi; conditions: intracellular amastigotes, 4 days on rat skeletal myoblasts
Experimental: as §1
Activity against Trypanosoma cruzi was evaluated according to a procedure described by Buckner and coworkers. The strain Tulahuen C4 of T. cruzi, which had been transfected with the β-galactosidase lacZ gene, was cultivated for 4 days on rat skeletal myoblasts (5% CO2, 37 °C) in the presence of drug. For measurement of the IC50, the substrate chlorophenol red-β-D-galactopyranoside was added. The color reaction that developed during the following 2–4 h was quantified photometrically employing an ELISA reader. Benznidazole was included in each test series as positive control.

[3] = bloodstream forms, 3-day exposure
[4] = cytotoxicity, 3-day exposure, read-out: IC50 Rat Myoblast L6 Cells
[5] = Trypanosoma cruzi, TULAHUEN, Myoblast, 96 h
[6] = Trypanosoma brucei, 72 h, bloodstream forms, 3-day exposure
[7] = Rattus norvegicus, L6, 72 h, cytotoxicity, 3-day exposure, read-out: IC50 Rat Myoblast L6 Cells
[8] = Plasmodium falciparum, NF54, 72 h

CCCCCCCCCCCCCCCCOP(=O)([O-])OCC[N+](C)(C)C [Miltefosine, reference compound]
IC50 ([1]; Leishmania donovani, 72 h): 0.732 µM

CC(C)=CCC/C(C)=C/CC/C(C)=C/Cc1c(C)[nH]c2ccc(C)cc2c1=O [Compound 3, 6-Methyl aurachin D]
IC50 [2, 3]: 43.2 µM
IC50 (Rat Myoblast L6 Cells; [4]): 18.6 µM
IC50 (P. falciparum NF54): 514 nM
IC50 (T. cruzi Tulahuen C4): 7.6 µM
IC50 [1]: 4.3 µM

COc1ccc2[nH]c(C)c(C/C=C(\C)CC/C=C(\C)CCC=C(C)C)c(=O)c2c1 [Compound 5, 6-Methoxy aurachin D]
IC50 [2, 3]: 40.3 µM
IC50 (Rat Myoblast L6 Cells; [4]): 118 µM
IC50 (P. falciparum NF54): 866 nM
IC50 (T. cruzi Tulahuen C4): 19.3 µM
IC50 [1]: 7.3 µM

COc1cc([C@@H]2c3cc4c(cc3[C@H](O)[C@H]3COC(=O)[C@H]23)OCO4)cc(OC)c1OC [Podophyllotoxin, reference compound]
IC50 (Rat Myoblast L6 Cells; Rattus norvegicus, L6, 72 h, read-out: IC50 Rat Myoblast L6 Cells): 0.022 µM

CC(C)=CCC/C(C)=C/CC/C(C)=C/Cc1c(C)[nH]c2ccc(Br)cc2c1=O [Compound 10, 6-Bromo aurachin D]
IC50 [2, 3]: 40.2 µM
IC50 (Rat Myoblast L6 Cells; [4]): 108 µM
IC50 (P. falciparum NF54): 119 nM
IC50 (T. cruzi Tulahuen C4): 22.6 µM
IC50 [1]: 13.9 µM

O=C(Cn1ccnc1[N+](=O)[O-])NCc1ccccc1 [Benznidazole, reference compound]
IC50 (T. cruzi Tulahuen C4; [5]): 2.5 µM

CC(C)=CCC/C(C)=C/CC/C(C)=C/Cc1c(C)[nH]c2cc(C)ccc2c1=O [Compound 4, 7-Methyl aurachin D]
IC50 [2, 6]: 164 µM
IC50 (Rat Myoblast L6 Cells; [7]): 65.3 µM
IC50 (P. falciparum NF54; [8]): 7 nM
IC50 (T. cruzi Tulahuen C4; [5]): 45.7 µM
IC50 ([1]; Leishmania donovani, 72 h): 9.1 µM

Nc1nc(N)nc(Nc2ccc([As]3SCC(CO)S3)cc2)n1 (stereo not shown) [Melarsoprol, reference compound]
IC50 ([2]; Trypanosoma brucei, 72 h): 0.013 µM

COc1ccc2c(=O)c(C/C=C(\C)CC/C=C(\C)CCC=C(C)C)c(C)[nH]c2c1 [Compound 6, 7-Methoxy aurachin D]
IC50 [2, 3]: 44.8 µM
IC50 (Rat Myoblast L6 Cells; [4]): 80.8 µM
IC50 (P. falciparum NF54): 89 nM
IC50 (T. cruzi Tulahuen C4): 21.9 µM
IC50 [1]: 17.1 µM

CC(C)=CCC/C(C)=C/CC/C(C)=C/Cc1c(C)[nH]c2ccc(Cl)cc2c1=O [Compound 8, 6-Chloro aurachin D]
IC50 [2, 3]: 37.4 µM
IC50 (Rat Myoblast L6 Cells; [4]): 118 µM
IC50 (P. falciparum NF54): 21 nM
IC50 (T. cruzi Tulahuen C4): 11.2 µM
IC50 [1]: 6.2 µM

CC(C)=CCC/C(C)=C/CC/C(C)=C/Cc1c(C)[nH]c2ccccc2c1=O [Compound 1, aurachin D]
IC50 [2, 6]: 4.5 µM
IC50 (Rat Myoblast L6 Cells; [7]): 131 µM
IC50 (Rat Myoblast L6 Cells; Rattus norvegicus, L6, cytotoxicity, read-out: IC50 rat skeletal myoblasts): 131 µM
IC50 (P. falciparum NF54; [8]): 12 nM
IC50 (T. cruzi Tulahuen C4; [5]): 1.3 µM
IC50 ([1]; Leishmania donovani, 72 h): 0.044 µM

CC(C)=CCC/C(C)=C/CC/C(C)=C/Cc1c(C)[nH]c2cc(Cl)ccc2c1=O [Compound 9, 7-Chloro aurachin D]
IC50 [2, 3]: 105 µM
IC50 (Rat Myoblast L6 Cells; [4]): 54.7 µM
IC50 (P. falciparum NF54): 70 nM
IC50 (T. cruzi Tulahuen C4): 41.8 µM
IC50 [1]: 9.2 µM

CC(C)=CCC/C(C)=C/CC/C(C)=C/Cc1c[nH]c2ccccc2c1=O [Compound 2, 2-Desmethyl aurachin D]
IC50 [2, 3]: 9.5 µM
IC50 (Rat Myoblast L6 Cells; [4]): 20.4 µM
IC50 (P. falciparum NF54): 6 nM
IC50 (T. cruzi Tulahuen C4): 2.4 µM
IC50 [1]: 1.5 µM

CC(C)=CCC/C(C)=C/CC/C(C)=C/Cc1c(C)[nH]c2ccc(F)cc2c1=O [Compound 7, 6-Fluoro aurachin D]
IC50 [2, 3]: 37.2 µM
IC50 (Rat Myoblast L6 Cells; [4]): 126 µM
IC50 (P. falciparum NF54): 61 nM
IC50 (T. cruzi Tulahuen C4): 1.8 µM
IC50 [1]: 0.617 µM
